Source: patent US11174245B2, “Benzimidazole compounds and derivatives as EGFR inhibitors” (Boehringer Ingelheim International GmbH, priority 2018, dated 2021)
Where two headings read alike, the source gives them in different places.

What was measured:
[1] = test system: Ba/F3 cells driven by EGFR mutants; test: Ba/F3 proliferation assay (CellTiter-Glo viability), EGFR mutant alleles; type: cell-based, murine; conditions: Mus musculus
Experimental: (§1) Ba/F3 Cell Model Generation and Proliferation Assays
(§2) Plasmids containing EGFR mutants were obtained from GeneScript. To generate EGFR-dependent […] were transduced with retroviruses containing vectors that harbor EGFR isoforms. Platinum-E cells (Cell Biolabs) were used for retrovirus packaging. Retrovirus was added to Ba/F3 cells. To ensure infection, 4 μg/mL polybrene was added and cells were spinfected. Infection efficiency was confirmed by measuring GFP-positive cells using a cell analyzer. Cells with an infection efficiency of 10% to 20% were further cultivated and puromycin selection with 1 μg/mL was initiated. As a control, parental Ba/F3 cells were used to show selection status. Selection was considered successful when parental Ba/F3 cells cultures died. To evaluate the transforming potential of EGFR mutations, the growth medium was no longer supplemented with IL-3. Ba/F3 cells harboring the empty vector were used as a control. A switch from IL-3 to EGF was performed for Ba/F3 cells with the wildtype EGFR known for its dependency on EGF ligand. Approximately ten days before conducting the experiments, puromycin was left out. For proliferation assays (data in table 13), Ba/F3 cells were seeded into 96-well plates at 5×10^3 cells/100 μL in growth media. Compounds were added by using a HP D3000 Digital Dispenser. All treatments were performed in technical triplicates. Treated cells were incubated for 72 h at 37° C. with 5% CO2. CellTiter-Glo® Luminescent Cell Viability Assay (Promega) was performed and chemoluminescence was measured by using the multilabel Plate Reader VICTOR X4. The raw data were imported into and analyzed with the Boehringer Ingelheim proprietary software MegaLab (curve fitting based on the program PRISM, GraphPad Inc.).

[2] = test system: Ba/F3 cells EGFR-indep. + IL-3; test: Ba/F3 proliferation assay (CellTiter-Glo viability), EGFR-independent cells with IL-3; type: cell-based, murine; conditions: Mus musculus, BaF3, Ba/F3 EGFR-independent + IL-3
Experimental: as §2

[3] = molecular target: EGFR (mutated) 695-1022, T790M, C797S, L858R (Homo sapiens (Human), UniProt P00533, C797S/L858R/T790M); test: Biochemical EGFR inhibition assay (TR-FRET, poly-GT substrate), EGFR T790M C797S L858R
In short: (§3)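 Phosphorylation of tagged poly-GT substrate by EGFR forms measured at 5 μM and 100 μM ATP (final). Top compound concentration 100 μM, eleven fivefold dilutions, in duplicate. Results given as IC50.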

EGFR wt = EGFR wt (Homo sapiens (Human), UniProt P00533); test: Biochemical EGFR inhibition assay (TR-FRET, poly-GT substrate), EGFR wt
In short: as §3

[4] = test system: Ba/F3 cells with the wildtype EGFR; test: Ba/F3 proliferation assay (CellTiter-Glo viability), wildtype EGFR with EGF; type: cell-based, murine; conditions: Mus musculus, BaF3, Ba/F3 EGFR wt
Experimental: as §1, §2

[5] = molecular target: EGFR del19 T790M C797S protein in Ba/F3 cells (Homo sapiens, UniProt P00533, C797S/DEL746-750/T790M); test: pEGFR assay (AlphaScreen Surefire, EGFR Tyr1068 phosphorylation); type: cell-based
In short: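 Transduced Ba/F3 cells, puromycin-selected and grown IL-3 independent, were treated with compound at 60.000 cells/well for 4 h at 37° C. Lysis followed for 20 min at room temperature, and Tyr1068 phospho-EGFR in lysate was detected after 2 h dark incubation. Results are IC50 values.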

[6] = molecular target: EGFR (d746-750 T790M C797S) (Homo sapiens (Human), UniProt P00533, C797S/DEL746-750/T790M); test: Biochemical EGFR inhibition assay (TR-FRET, poly-GT substrate), EGFR d746-750 T790M C797S
Experimental: Biochemical EGFR Inhibition Assays
Initially, the inhibitory effect of compounds according to the invention is measured in biochemical assays which measure the phosphorylation activity of EGFR enzyme forms on poly-GT substrate in the presence of different concentrations of ATP (5 μM and 100 μM final assay concentration).
The following enzyme forms of EGFR are representative examples that can be used in these assays at the given concentrations:
For the chosen highest assay concentration of 100 μM, 150 nL of compound solution is transferred from a 10 mM DMSO compound stock solution. A series of eleven fivefold dilutions per compound is transferred to the assay plate, compound dilutions are tested in duplicates. DMSO is added as backfill to a total volume of 150 nL. The assay runs on a fully automated robotic system.
These biochemical EGFR enzyme form compound dose-response assays quantify the kinase activity via phosphorylation of a tagged poly-GT substrate. The results of the assay are provided as IC50 values.

EGFR M+ NSCLC patients = conditions: cited from earlier work; for objective response rate: EGFR M+ NSCLC patients treated in 1st line
[7] = test system: EGFR M+ T790M-positive NSCLC patients; conditions: 2nd line, cited from earlier work
[8] = BaF3, Ba/F3 EGFR L858R C797S, read-out: IC50 EGFR L858R C797S
[9] = BaF3, Ba/F3 EGFR L858R T790M C797S, read-out: IC50 EGFR L858R T790M C797S
[10] = BaF3, Ba/F3 EGFR L858R T790M, read-out: IC50 EGFR L858R T790M
[11] = BaF3, Ba/F3 EGFR L858R, read-out: IC50 EGFR L858R
[12] = BaF3, Ba/F3 EGFR del19, read-out: IC50 EGFR del19
[13] = BaF3, Ba/F3 EGFR del19 C797S, read-out: IC50 EGFR del19 C797S
[14] = BaF3, Ba/F3 EGFR del19 T790M C797S, read-out: IC50 EGFR del19 T790M C797S
[15] = BaF3, Ba/F3 EGFR del19 T790M, read-out: IC50 EGFR del19 T790M
[16] = read-out: LR_TM_CS (5 μM ATP) IC50, 5 μM ATP
[17] = read-out: LR_TM_CS (100 μM ATP) IC50, 100 μM ATP
[18] = read-out: wt (5 μM ATP) IC50, 5 μM ATP
[19] = read-out: wt (100 μM ATP) IC50, 100 μM ATP

EGFR wt, sequence (P00533 25-1210): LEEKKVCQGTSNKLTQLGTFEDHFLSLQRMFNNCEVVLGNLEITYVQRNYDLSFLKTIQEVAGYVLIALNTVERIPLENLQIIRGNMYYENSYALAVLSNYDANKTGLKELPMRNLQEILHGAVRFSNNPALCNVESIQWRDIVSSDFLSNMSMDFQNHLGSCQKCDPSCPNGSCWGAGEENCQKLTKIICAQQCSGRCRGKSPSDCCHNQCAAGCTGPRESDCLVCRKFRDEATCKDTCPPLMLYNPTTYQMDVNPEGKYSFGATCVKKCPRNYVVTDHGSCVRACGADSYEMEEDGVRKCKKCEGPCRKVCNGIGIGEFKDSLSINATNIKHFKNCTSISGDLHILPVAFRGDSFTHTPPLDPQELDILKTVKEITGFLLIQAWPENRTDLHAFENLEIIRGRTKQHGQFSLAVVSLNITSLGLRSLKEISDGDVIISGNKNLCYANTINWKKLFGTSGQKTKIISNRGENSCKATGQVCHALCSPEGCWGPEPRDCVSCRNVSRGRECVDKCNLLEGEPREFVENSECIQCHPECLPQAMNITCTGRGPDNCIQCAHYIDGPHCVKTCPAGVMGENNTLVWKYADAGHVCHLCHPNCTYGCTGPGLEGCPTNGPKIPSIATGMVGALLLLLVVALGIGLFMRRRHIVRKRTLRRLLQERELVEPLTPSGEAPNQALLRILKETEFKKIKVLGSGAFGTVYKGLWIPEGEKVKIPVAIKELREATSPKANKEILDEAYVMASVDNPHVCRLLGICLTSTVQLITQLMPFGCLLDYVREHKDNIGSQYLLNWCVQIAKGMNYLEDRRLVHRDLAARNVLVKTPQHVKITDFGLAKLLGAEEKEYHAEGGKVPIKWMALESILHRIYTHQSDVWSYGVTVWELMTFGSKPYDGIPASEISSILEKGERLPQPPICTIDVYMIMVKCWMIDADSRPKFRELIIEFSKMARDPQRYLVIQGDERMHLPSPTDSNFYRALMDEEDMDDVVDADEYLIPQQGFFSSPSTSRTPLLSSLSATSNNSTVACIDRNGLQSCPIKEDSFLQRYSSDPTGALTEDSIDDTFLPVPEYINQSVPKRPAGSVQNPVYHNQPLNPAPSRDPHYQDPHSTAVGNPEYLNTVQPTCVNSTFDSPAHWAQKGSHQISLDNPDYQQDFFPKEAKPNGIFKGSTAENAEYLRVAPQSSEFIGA
EGFR (d746-750 T790M C797S), sequence (P00533 other isoform, or with tags, fused parts or gaps T790M/C797S/del 1-694/del 746-750 limits assumed): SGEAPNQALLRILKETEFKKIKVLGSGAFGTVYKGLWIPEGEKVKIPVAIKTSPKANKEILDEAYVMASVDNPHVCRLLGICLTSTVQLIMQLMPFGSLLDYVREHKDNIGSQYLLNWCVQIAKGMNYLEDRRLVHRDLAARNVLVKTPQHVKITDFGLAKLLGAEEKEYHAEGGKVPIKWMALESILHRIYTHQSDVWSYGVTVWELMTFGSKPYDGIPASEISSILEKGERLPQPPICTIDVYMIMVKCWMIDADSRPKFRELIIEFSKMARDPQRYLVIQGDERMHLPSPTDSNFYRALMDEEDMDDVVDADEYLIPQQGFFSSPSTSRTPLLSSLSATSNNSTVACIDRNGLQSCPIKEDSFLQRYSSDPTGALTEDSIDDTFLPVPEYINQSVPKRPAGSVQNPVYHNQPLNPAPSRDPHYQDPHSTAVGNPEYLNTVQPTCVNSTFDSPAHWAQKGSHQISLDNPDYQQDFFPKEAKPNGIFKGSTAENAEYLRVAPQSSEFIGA
EGFR (mutated) 695-1022, T790M, C797S, L858R, sequence (P00533 695-1022 T790M/C797S/L858R): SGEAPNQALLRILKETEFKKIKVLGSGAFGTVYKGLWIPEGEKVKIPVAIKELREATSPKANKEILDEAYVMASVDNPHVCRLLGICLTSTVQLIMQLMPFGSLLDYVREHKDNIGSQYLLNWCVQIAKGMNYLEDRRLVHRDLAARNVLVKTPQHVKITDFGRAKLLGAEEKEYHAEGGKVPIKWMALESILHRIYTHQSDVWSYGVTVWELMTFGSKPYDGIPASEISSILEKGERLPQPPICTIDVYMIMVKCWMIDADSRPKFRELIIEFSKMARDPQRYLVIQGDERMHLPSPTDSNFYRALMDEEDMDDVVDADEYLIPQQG
EGFR del19 T790M C797S protein in Ba/F3 cells, sequence (P00533 with tags, fused parts or gaps C797S/DEL746-750/T790M limits assumed): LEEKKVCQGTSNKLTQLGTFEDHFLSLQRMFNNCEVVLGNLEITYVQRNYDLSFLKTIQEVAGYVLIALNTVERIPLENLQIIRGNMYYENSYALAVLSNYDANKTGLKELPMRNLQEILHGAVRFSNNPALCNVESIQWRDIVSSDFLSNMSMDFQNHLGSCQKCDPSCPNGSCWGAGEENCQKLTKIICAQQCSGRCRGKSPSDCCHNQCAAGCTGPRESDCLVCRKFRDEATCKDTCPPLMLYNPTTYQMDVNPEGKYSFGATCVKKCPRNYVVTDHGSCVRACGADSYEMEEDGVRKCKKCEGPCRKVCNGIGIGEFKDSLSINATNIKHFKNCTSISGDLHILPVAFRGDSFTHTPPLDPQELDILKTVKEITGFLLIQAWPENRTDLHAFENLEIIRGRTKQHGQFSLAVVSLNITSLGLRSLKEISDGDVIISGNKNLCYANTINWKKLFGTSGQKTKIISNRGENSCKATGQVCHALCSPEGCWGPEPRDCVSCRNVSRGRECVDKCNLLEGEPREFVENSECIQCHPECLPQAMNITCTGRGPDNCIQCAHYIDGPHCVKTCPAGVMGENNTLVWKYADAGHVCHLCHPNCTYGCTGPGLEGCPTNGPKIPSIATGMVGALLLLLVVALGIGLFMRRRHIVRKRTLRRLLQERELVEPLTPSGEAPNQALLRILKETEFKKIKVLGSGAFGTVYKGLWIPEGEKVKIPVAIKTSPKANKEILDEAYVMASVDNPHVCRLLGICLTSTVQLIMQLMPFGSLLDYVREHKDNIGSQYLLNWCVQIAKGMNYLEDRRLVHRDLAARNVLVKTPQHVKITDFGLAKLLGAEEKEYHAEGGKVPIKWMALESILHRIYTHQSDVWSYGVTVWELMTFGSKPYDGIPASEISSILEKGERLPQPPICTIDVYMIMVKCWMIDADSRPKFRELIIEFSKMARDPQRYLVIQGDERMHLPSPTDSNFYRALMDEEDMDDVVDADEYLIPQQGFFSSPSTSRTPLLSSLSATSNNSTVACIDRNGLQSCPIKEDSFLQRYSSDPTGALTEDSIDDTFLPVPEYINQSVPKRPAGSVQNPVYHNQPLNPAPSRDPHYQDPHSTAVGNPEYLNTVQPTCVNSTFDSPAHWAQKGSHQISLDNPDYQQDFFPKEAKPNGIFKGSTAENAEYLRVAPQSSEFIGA

| IC50 [3, 16] | IC50 [3, 17] | IC50 (EGFR wt; [18]) | IC50 (EGFR wt; [19]) | IC50 [5] | IC50 ([6]; 100 μM ATP) | SMILES | other results |
| --- | --- | --- | --- | --- | --- | --- | --- |
| 0.5 nM | 8.8 nM | 12.5 nM | 549 nM | 4 nM |  | COc1ccccc1-c1cc(C(=O)/N=c2\[nH]c3cc(C)ccc3n2[C@H]2CC[C@@H](O)CC2)ccn1 [I-109] | IC50 [1, 8]: 51.5 nM; IC50 [1, 9]: 146 nM; IC50 [1, 10]: 177 nM; IC50 [1, 11]: 38.3 nM; IC50 [1, 12]: 9.1 nM; IC50 [1, 13]: 7 nM; IC50 [1, 14]: 23.5 nM; IC50 [1, 15]: 52.9 nM; IC50 [2]: 8650 nM; IC50 [4]: 728 nM |
| 0.8 nM | 10.5 nM | 125 nM | 114 nM | 9 nM | 2 nM | Cn1cc(-c2cc(C(=O)/N=c3\[nH]c4ccccc4n3C3CCCCC3)ccn2)cn1 [I-015] | IC50 [1, 8]: 290 nM; IC50 [1, 9]: 284 nM; IC50 [1, 10]: 408 nM; IC50 [1, 11]: 274 nM; IC50 [1, 12]: 45.8 nM; IC50 [1, 13]: 21.1 nM; IC50 [1, 14]: 47 nM; IC50 [1, 15]: 169 nM; IC50 [2]: 6520 nM; IC50 [4]: 2220 nM |
|  |  |  |  |  |  | C#Cc1cccc(Nc2ncnc3cc(OCCOC)c(OCCOC)cc23)c1 [erlotinib] | objective response rate (EGFR M+ NSCLC patients): 60-85% |
| 0.4 nM | 5.7 nM | 32.3 nM | 1310 nM | 1 nM |  | Cn1cc(-c2cc(C(=O)/N=c3\[nH]c4ccccc4n3[C@H]3CC[C@@H](O)CC3)ccn2)cn1 [I-048] | IC50 [1, 8]: 52.1 nM; IC50 [1, 9]: 48.2 nM; IC50 [1, 10]: 79.4 nM; IC50 [1, 11]: 39.2 nM; IC50 [1, 12]: 10.9 nM; IC50 [1, 13]: 9.1 nM; IC50 [1, 14]: 12 nM; IC50 [1, 15]: 32.9 nM; IC50 [2]: 7940 nM; IC50 [4]: 540 nM |
|  |  |  |  |  |  | Cc1cc(C(=O)Nc2nc3cccc(Cl)c3n2[C@@H]2CCCCN(C(=O)/C=C/CN(C)C)C2)ccn1 [nazartinib, reference compound] | IC50 [2]: > 5000 nM; IC50 [4]: 95.1 nM |
|  | 190 nM |  | 14800 nM | 58 nM | 72.4 nM | CN(C)Cc1ccc2c(c1)[nH]/c(=N\C(=O)c1ccnc(-c3cnn(C)c3)c1)n2CC(C)(C)O [I-029] |  |
|  | 189 nM |  | > 100000 nM | 6 nM | 6.6 nM | CC(C)(O)Cn1/c(=N/C(=O)c2ccnc(-c3cccnc3)c2)[nH]c2cc(C3CCCOC3)ccc21 (stereo not shown) [I-052] |  |
| 1.8 nM |  | 2020 nM |  | 4 nM |  | Cc1cc(C(=O)/N=c2\[nH]c3ccc(CN4CCOCC4)cc3n2[C@H]2CC[C@@H](O)CC2)cc(-c2cnn(C)c2)n1 [I-223] | IC50 ([6]; 5 μM ATP): 0.5 nM |
|  | 38.5 nM |  | 1950 nM | 13 nM | 4.7 nM | Cc1c(-c2cc(C(=O)/N=c3\[nH]c4ccccc4n3C3CCCC3)ccn2)cnn1C [I-004] |  |
|  | 27.7 nM |  | 7060 nM | 77 nM | 2.5 nM | CN1CCC(c2ccc3c(c2)[nH]/c(=N\C(=O)c2ccnc(-c4cccnc4)c2)n3C2CCCC2)CC1 [I-011] |  |
|  | 27.7 nM |  | 876 nM | 4 nM | 4.9 nM | CN1CCC(c2ccc3c(c2)[nH]/c(=N\C(=O)c2ccnc(-c4cnn(C)c4)c2)n3CC(C)(C)O)CC1 [I-021] |  |
|  | 86.9 nM |  | 26300 nM | 10 nM | 7.3 nM | COC(=O)Cc1ccc2c(c1)[nH]/c(=N\C(=O)c1ccnc(-c3cnn(C)c3)c1)n2CC(C)(C)O [I-055] |  |
| 1.9 nM | 64.6 nM | 403 nM | > 100000 nM | 25 nM | 10.5 nM | CC(C)Cn1/c(=N/C(=O)c2ccnc(-c3cnn(C)c3)c2)[nH]c2ccccc21 [I-012] |  |
|  |  |  |  |  |  | COc1cc2ncnc(Nc3ccc(F)c(Cl)c3)c2cc1NC(=O)/C=C/CN1CCCCC1 [dacomitinib, reference compound] | IC50 [4]: 0.64 nM |
| 1.6 nM | 40.1 nM | 407 nM | 1250 nM | 3 nM | 4 nM | Cn1cc(-c2cc(C(=O)/N=c3\[nH]c4ccccc4n3[C@H]3CC[C@H](O)CC3)ccn2)cn1 [I-036] |  |
| 0.6 nM |  | 318 nM |  | 5 nM |  | Cc1cc(C(=O)/N=c2\[nH]c3ccc(CN4CCN(C)CC4)cc3n2[C@H]2CC[C@@H](O)CC2)cc(-c2cnn(C)c2)n1 [I-222] | IC50 ([6]; 5 μM ATP): 0.2 nM |
| 3.9 nM | 111 nM | 1880 nM | 9960 nM | 7 nM | 14.2 nM | Cc1c(-c2cc(C(=O)/N=c3\[nH]c4ccccc4n3CC(C)(C)O)ccn2)cnn1C [I-017] |  |
|  | 79.3 nM |  | 6670 nM | 79 nM | 5.6 nM | CN1CCC(c2ccc3c(c2)[nH]/c(=N\C(=O)c2ccnc(-c4cnn(C)c4)c2)n3CC(C)(C)O)CC1=O (stereo not shown) [I-035] |  |
|  | 78.2 nM |  | > 100000 nM | 7 nM | 7.7 nM | CC(C)(O)Cn1/c(=N/C(=O)c2ccnc(-c3cnn4ccccc34)c2)[nH]c2ccccc21 [I-023] |  |
|  |  |  |  |  |  | C=CC(=O)Nc1cc(Nc2nccc(-c3cn(C)c4ccccc34)n2)c(OC)cc1N(C)CCN(C)C [osimertinib] | objective response rate (EGFR M+ NSCLC patients): 60-85%; average duration until disease progression (EGFR M+ NSCLC patients; previously untreated EGFR M+ NSCLC patients): 19 months; patients responding to treatment ([7]; previously treated with earlier generation EGFR TKI): Approximately 70%; average duration until disease progression [7]: 10 months |
|  | 94.1 nM |  | 5740 nM | 2 nM | 8.7 nM | Cn1cc(-c2cc(C(=O)/N=c3\[nH]c4cc(C5CCCOC5)ccc4n3CC(C)(C)O)ccn2)cn1 (stereo not shown) [I-053] |  |
| 0.8 nM |  | 108 nM |  | 2 nM |  | Cn1cc(-c2cc(C(=O)/N=c3\[nH]c4ccccc4n3[C@H]3CCC[C@H](O)C3)ccn2)cn1 [I-137] | IC50 [1, 8]: 100 nM; IC50 [1, 9]: 137 nM; IC50 [1, 10]: 178 nM; IC50 [1, 11]: 91.6 nM; IC50 [1, 12]: 16.6 nM; IC50 [1, 13]: 8.7 nM; IC50 [1, 14]: 20.7 nM; IC50 [1, 15]: 72 nM; IC50 [2]: 9060 nM; IC50 [4]: 2060 nM |
|  | 234 nM |  | 40800 nM | 27 nM | 15.8 nM | Cn1cc(-c2cc(C(=O)/N=c3\[nH]c4ccccc4n3CC(C)(C)CO)ccn2)cn1 [I-038] |  |
